The record followed here is PubChem BioAssay AID1259321 (Sanford-Burnham Center for Chemical Genomics, 2017).

The term IC50 denotes the point on the concentration scale where inhibition reaches its midpoint.

SMILES strings stand for the structures. The source made the active and inactive calls.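 The calls were made as follows: active = half-maximal concentration for changing protein binding to DNA, from the fitted dose curve, below 10 micromolar; inactive = the rest.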

The target in the assay is Nuclear receptor subfamily 1 group D member 1 (Homo sapiens) (UniProt P20393). Description: modulators of Rev-erb alpha DNA binding, dose response, biochemical, FITC-DNA, fluorescence polarization (AID 1259321).
Nuclear receptor subfamily 1 group D member 1 (Homo sapiens), sequence (P20393 whole entry, looked up): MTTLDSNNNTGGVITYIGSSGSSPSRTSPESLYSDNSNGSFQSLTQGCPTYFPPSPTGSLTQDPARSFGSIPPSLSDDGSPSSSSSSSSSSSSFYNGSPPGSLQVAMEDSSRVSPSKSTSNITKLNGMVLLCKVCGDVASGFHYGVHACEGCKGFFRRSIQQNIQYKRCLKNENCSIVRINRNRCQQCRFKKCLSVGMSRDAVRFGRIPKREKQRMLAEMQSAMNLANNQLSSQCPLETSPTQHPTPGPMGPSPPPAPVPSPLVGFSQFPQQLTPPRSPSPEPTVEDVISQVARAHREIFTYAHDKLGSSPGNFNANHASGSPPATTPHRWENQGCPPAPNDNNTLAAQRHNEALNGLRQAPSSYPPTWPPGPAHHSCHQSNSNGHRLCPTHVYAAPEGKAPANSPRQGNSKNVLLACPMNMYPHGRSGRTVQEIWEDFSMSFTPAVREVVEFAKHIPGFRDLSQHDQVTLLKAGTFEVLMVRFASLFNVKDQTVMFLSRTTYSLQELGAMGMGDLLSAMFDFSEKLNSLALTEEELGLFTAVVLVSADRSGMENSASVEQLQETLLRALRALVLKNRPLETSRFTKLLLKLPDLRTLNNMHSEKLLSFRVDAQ

Regarding `O=[N+]([O-])c1ccc(-c2nc(-c3cccs3)c(-c3cccs3)[nH]2)cc1`, the IC50 result is “inactive”.

Turning to `Cc1c(Cl)cccc1NC(=O)Cn1cc(C(F)(F)F)cc(Cl)c1=O`, the IC50 was > 40 µM (inactive).

With `COc1ccccc1C(=O)Nc1nc2ccccc2s1`, the concentration for half-maximal inhibition (IC50) is 5.23 µM.

As for `CCC[C@H]1[C@@H](N(C)Cc2cccs2)CC[C@@]23CCCN2C(=O)CCC[C@@H]13`, the IC50 entry is “inactive”.

For the compound `Cc1cc2cc3c(=O)[nH]c(=O)[nH]c3nc2cc1C`, the IC50 is 3.34 µM.

Turning to `CCOc1ccc2cc(C#N)c(SCC(=O)OC)nc2c1`, the IC50 was 3.74 µM.

Consider `Cc1ccc(CSc2nc3ccncc3n2CC(=O)Nc2cc(C)cc(C)c2)cc1`, for which the IC50 was > 40 µM (inactive).

For `Cc1ccc(-c2nc(NC(=O)CSc3cc(C)c4ccccc4n3)ns2)cc1`, the IC50 was 1.91 µM.

Turning to `Cc1cccc(C)c1NC(=O)COc1ccccc1C(=O)Nc1ccc(Br)cn1`, the IC50 is 4.34 µM.

Turning to `CCOC(=O)c1nn(-c2ccc(F)cc2)c(=O)cc1OCC(=O)Nc1ccc(F)c(F)c1`, the IC50 was > 40 µM (inactive).

As to `COc1ccccc1N1C(=O)c2cccc3c(N(C)CCO)ccc(c23)C1=O`, the half-maximal inhibitory concentration (IC50) was 8.2 µM.

Regarding `O=C1c2cccc3c(N4CCCCC4)ccc(c23)C(=O)N1c1cccc(O)c1`, the IC50 is > 40 µM (inactive).

In the case of `Cn1c(SCC(=O)NCc2ccc3c(c2)OCO3)ncc(C(=O)Nc2ccc(F)cc2)c1=O`, the IC50 was 3.91 µM.

For `O=C(COC(=O)c1sc2ccccc2c1Cl)Nc1ncc(Cl)cc1Cl`, the IC50 was > 40 µM (inactive).

For the compound `CC(C)c1nc2sc3c(SCC(N)=O)ncnc3c2c2c1CCC2`, the IC50 is 3.43 µM.

Regarding `CCNC(=O)C[C@H]1CC[C@H]2[C@@H](COc3ccc(NC(=O)c4ccc5c(c4)OCO5)cc3C(=O)N2C)O1`, the IC50 result is “inactive”.

As to `COc1ccc(CCNC(=O)CSc2nc(-c3ccc(OC)c(OC)c3)ccc2C#N)cc1`, the IC50 entry was “inactive”.

As for `Cc1ccc(C(=O)Nc2nc3ccccc3c(=O)s2)cc1`, the IC50 was 0.599 µM.

Turning to `Cc1ccc2cc(C#N)c(SCC(=O)NNC(=O)Cc3ccccc3)nc2c1`, the IC50 is 4.25 µM.

`O=[N+]([O-])c1ccc2c(c1)Cc1cc(F)ccc1-2`: the IC50 was 9.46 µM.

Turning to `CCN(c1cccc(C)c1)S(=O)(=O)c1cc2c3c(c1)CCC(=O)N3CCC2`, the IC50 entry was “inactive”.

Turning to `COC(=O)c1ccccc1NC(=O)C1=CC(c2cccs2)=NS(=O)(=O)N1C`, the IC50 was 1.14 µM.

For the compound `Cc1nc2nc(SCC(=O)c3ccccc3)[nH]c2cc1Br`, the IC50 is > 40 µM (inactive).

As for `O=C(CSc1nnnn1-c1ccc2c(c1)OCCO2)c1cccc2c1OCCO2`, the IC50 was 2.98 µM.

`O=c1c2ccccc2sc2ccc(Cl)cc12`: the IC50 was 3.38 µM.

As for `COc1ccc(S(=O)(=O)N2CCCCCC2)cc1C(=O)Nc1ccc(C)cn1`, the IC50 was > 40 µM (inactive).

Turning to `O=C(NCc1ccc2c(c1)OCO2)C1CCC(CNS(=O)(=O)c2cccc3nsnc23)CC1` (stereo not drawn), the IC50 was > 40 µM (inactive).

With `CCOc1ccc(CC(=O)Nc2sc(Cc3ccccc3)cc2C(N)=O)cc1OCC`, the IC50 was > 40 µM (inactive).

Regarding `C[n+]1cc(C(=O)N2CCCCC2)ccc1/C=C/c1c[nH]c2ccccc12`, the IC50 was 9.3 µM.

On to `O=C1c2cccc3c(O)ccc(c23)C(=O)N1Cc1ccco1`, for which the IC50 result was “inactive”.

Consider `CC(=O)c1cc2c(cc1N/C(=N/S(=O)(=O)c1ccccc1)c1ccc(Cl)cc1)OCO2`, for which the IC50 result is “inactive”.

Turning to `O=c1ccc2c(-c3ccccc3)c3ccc(O)cc3oc-2c1`, the IC50 result is “inactive”.

Consider `COCCN(Cc1cc2cc(C)ccc2n2nnnc12)C(=S)Nc1ccccc1C`, for which the IC50 is 2.73 µM.

As to `CCc1nnc(NS(=O)(=O)c2ccc(Nc3ccc([N+](=O)[O-])c4nonc34)cc2)s1`, the IC50 was 9.46 µM.

In the case of `O=C(COC(=O)c1ccccc1SCC(=O)NC1CCCCC1)NC1CCCCC1`, the IC50 was 4.78 µM.

Turning to `N#Cc1cc(C#N)c(N2CCN(c3cccc(Cl)n3)CC2)nc1N`, the IC50 was 5.79 µM.

Take `CCCCN(C)C1=CC2=CC(=C(C#N)C#N)CCC2CC1` (stereo not drawn): the IC50 was > 40 µM (inactive).

`Cc1cc(-c2cccc([N+](=O)[O-])c2)nc2ccc3ccccc3c12`: the IC50 was 3 µM.

`COc1ccc(-n2c(SCC(=O)Nc3cc(C)on3)nc3c([nH]c4ccccc43)c2=O)cc1`: the IC50 entry was “inactive”.

Regarding `CCOc1ccccc1NC(=O)CSc1nc(N)c(C#N)cc1C#N`, the IC50 result is “inactive”.

Turning to `CCOc1ccccc1NC(=O)CSC1=C(C#N)C(c2ccco2)C(C(=O)Nc2nc3ccccc3s2)=C(C)N1` (stereo not drawn), the IC50 was 4.49 µM.

As for `COc1ccc2c(C)cc(SCC(=O)NC3CCCCC3)nc2c1`, the IC50 is > 40 µM (inactive).

Turning to `COc1ccc2c(c1)c(=O)oc1cc(OCC(=O)NC3CC3)ccc12`, the IC50 was 6.09 µM.

Turning to `CC(C)(C#N)Cc1cc(CC(C)(C)C#N)cc(C(C)(C)C)c1`, the IC50 is 4.07 µM.

Take `COc1ccc(NC(=O)CSc2nc3ccccc3c(=O)n2-c2ccc3c(c2)OCO3)c(OC)c1`: the IC50 is > 40 µM (inactive).

As for `CN(C)/C=N/C1=C(C#N)C(c2cccs2)c2ccc3ccccc3c2O1` (stereo not drawn), the IC50 was 3.95 µM.

For `CCOC(=O)c1c(NC(=O)CSc2nc3ccccc3s2)sc(C(C)=O)c1C`, the IC50 result is “inactive”.

As for `O=C1c2cccc3c(N4CCCCC4)ccc(c23)C(=O)N1CCO`, the IC50 result is “inactive”.

On to `COc1ccc(CCn2c(-c3ccc(OC)cc3)nc3c(c(=O)c4ccccc4n3C)c2=O)cc1`, for which the IC50 was 7.79 µM.

Regarding `COc1ccc(C(=O)NCCNc2nc3cc(C)cc(C)c3cc2C#N)nc1`, the IC50 result was “inactive”.

For `Fc1cccc2sc(Nc3nc4cc5c(cc4s3)OCCO5)nc12`, the IC50 result is “inactive”.

Consider `CCC(=O)c1cn(CC(=O)Nc2ccccc2Cl)c2ccccc12`, for which the IC50 was 3.98 µM.

Consider `Cc1ccc(CNc2nc3ccccc3n3nnnc23)cc1`, for which the IC50 result is “inactive”.

As to `COc1ccc2c(C)cc(SCC(=O)Nc3ncc(Cl)cc3Cl)nc2c1`, the IC50 is 7.03 µM.

For `Cc1ccc(-n2c(SCC(=O)NCc3ccco3)nc3sc4c(c3c2=O)CC(C)(C)SC4)cc1`, the IC50 is 1.93 µM.

For the compound `COc1ccc(-c2cc(C3CC3)nc(SCC(=O)c3cccs3)c2C#N)cc1`, the IC50 is 6.69 µM.

As for `COc1ccc(NC(=O)NNC(=O)COc2ccc3cc(Br)ccc3c2)cc1OC`, the IC50 was 8.29 µM.

Turning to `COc1ccc2c(/C=C/c3cc[n+](C)cc3)c[nH]c2c1`, the IC50 result is “inactive”.

For `COc1ccc(-c2cc(-c3ccc(C)cc3)nc(SCc3nnc(-c4ccccc4)o3)c2C#N)cc1OC`, the IC50 is 8.78 µM.

`COc1cc2cc(C#N)c(SCC(=O)Nc3cc(C)on3)nc2cc1OC`: the IC50 entry was “inactive”.

Turning to `Cc1cnc(NC(=O)c2cc3c(C)nn(-c4ccccc4)c3s2)s1`, the IC50 was 3.83 µM.

Turning to `O=C(COC(=O)c1cc(Br)ccc1O)Nc1cccnc1Cl`, the concentration for half-maximal inhibition (IC50) was 2.58 µM.

`CC1=NN(c2ccccc2)C(=O)/C1=C\C=C1\N(C)c2ccccc2C1(C)C`: the IC50 entry is “inactive”.

For `CCOC(=O)CSc1nc2cc3c(cc2cc1C#N)OCO3`, the IC50 is > 40 µM (inactive).

In the case of `Cc1nn(-c2ccc(Cl)c(Cl)c2)c(=O)c2ccccc12`, the IC50 was 5.16 µM.

For `O=C1/C(=C\c2cc(Cl)c(O)c(Cl)c2)SC(=S)N1Cc1ccccc1`, the IC50 was > 40 µM (inactive).

Turning to `Cc1cc(C)c2cc(C#N)c(SCC(=O)Nc3ccc4c(c3)OCO4)nc2c1`, the IC50 is 7.14 µM.

For `Cc1cc(C(F)(F)F)c2c(N)c(C(=O)Nc3cc(C)on3)sc2n1`, the IC50 result is “inactive”.

As for `O=C(c1ccccc1)N1N=C(c2ccccc2O)CC1c1ccccc1` (stereo not drawn), the IC50 is 2.32 µM.

Regarding `CN1C(=O)C(=Cc2ccc(N3CCOCC3)o2)C(=O)N(C)C1=S`, the IC50 is 4.11 µM.

As to `Oc1ccc(Br)cc1C1Nc2ccccc2S1` (stereo not drawn), the IC50 was 6.22 µM.

As for `N#Cc1ccc(Oc2ccc(-c3nc4ccccc4nc3-c3ccccc3)cc2)cc1C#N`, the IC50 is 4.49 µM.

Turning to `N#CC(C#N)=C1C=C2C=C(N3CCCCCC3)CCC2CC1` (stereo not drawn), the IC50 is 4.8 µM.

Consider `Cc1ccc(C)c(-n2c(-c3ccc(Br)cc3)csc2=NC(=O)c2ccccc2F)c1`, for which the IC50 result is “inactive”.

For the compound `Cc1ccc(C(=O)CSc2nc3ccccc3c(=O)n2-c2ccccc2)s1`, the IC50 was 7.75 µM.

Consider `O=C(c1cc2cc(Br)ccc2[nH]1)N1CCc2ccccc21`, for which the IC50 was 9.54 µM.

`CCN(CC)c1ccc(/C=C(\C#N)C(N)=S)cc1`: the IC50 entry is “inactive”.

In the case of `Cn1cc(/C=C/c2cc[n+](C)cc2)c2cc(Cl)ccc21`, the IC50 was > 40 µM (inactive).

Take `COC(=O)c1ccc(NC(=O)c2cc(Cl)ccc2OC)cc1`: the IC50 entry was “inactive”.

`Cn1cncc1C#Cc1ccc2cc(C3(O)CCCCC3)oc(=O)c2c1`: the IC50 entry was “inactive”.

For the compound `COC(=O)c1ccc(Cn2ccc3ccc(-c4ccc5ccn(C(=O)c6ccc(C)cc6)c5c4)cc32)cc1`, the IC50 was 1.56 µM.

`CCc1nc(SCC(=O)Nc2ccc3c(c2)OCCO3)c2oc3ccccc3c2n1`: the IC50 was 1.3 µM.

In the case of `COC(=O)Cn1c(=NC(=O)CCS(=O)(=O)c2ccccc2)sc2c(OC)ccc(OC)c21`, the IC50 was 3.16 µM.

As for `Cc1nonc1NC(=O)CSc1nc2ccccc2cc1C#N`, the IC50 result was “inactive”.

Take `CCOC(=O)c1c(NC(=O)C2CCCN(S(=O)(=O)c3ccccc3)C2)sc2c1CCCC2` (stereo not drawn): the IC50 was 3.46 µM.

With `Cc1oc2cc3oc(=O)c4c(c3cc2c1C)CCC4`, the IC50 is > 40 µM (inactive).

Turning to `Nc1nc(-c2cccs2)c(-c2cccs2)s1`, the IC50 is 1.43 µM.

As to `CC(C)n1cc(/C=C/c2cc[n+](C)cc2)c2ccccc21`, the IC50 entry is “inactive”.

Take `COC(=O)c1cccc(Cn2ccc3ccc(-c4ccc5ccn(C(=O)c6ccc(C)cc6)c5c4)cc32)c1`: the IC50 is > 40 µM (inactive).

As for `CCn1c(SCC(=O)Nc2cc(C)on2)nc2sc(C)c(C)c2c1=O`, the IC50 is 4.73 µM.

In the case of `Fc1ccc(-n2c(-c3cccs3)nc3nc4ccccc4nc32)cc1`, the IC50 is 4.41 µM.

Take `CCN1/C(=C/C=C/c2oc3ccc(-c4ccccc4)cc3[n+]2CC)Oc2ccc(-c3ccccc3)cc21`: the IC50 is > 40 µM (inactive).

As for `CCCCCOc1ccc(NC(=O)CSc2cccc3cccnc23)cc1`, the IC50 is 0.678 µM.
